Assay in all cases: inhibition of tumour cell growth, NCI panel, 48 h
In experiment [1] the test system is SK-MEL-5 melanoma.
For experiment [2], the system named is SF-268 CNS.
Experiment [3] concerns HCC-2998 colon.
The subject of experiment [4] is SK-MEL-2 melanoma.
Experiment [5] concerns OVCAR-3 ovarian.
The test system of experiment [6] is HCT-15 colon.
Experiment [7] deals with A549 NSCLC.
Experiment [8] concerns HS 578T breast.
In experiment [9] the test system is PC-3 prostate.
For experiment [10], the system named is HL-60(TB) leukemia.

TGI and GI50 data for 9 molecules are collected here from PubChem BioAssay (NCI).

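Each compound was tested at five concentrations against cells in 96-well plates for 48 hours. Here, GI50 denotes the concentration required for 50% inhibition of growth. The concentration for full growth arrest is given as TGI.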 Where only a bound is given, the exact number is not on record here.

For `CS(=O)(=O)c1cc(=O)c2ccccc2s1`, the TGI in experiment [1] came to 28.5 µM; in experiment [2] it was 32.1 µM; in [3] it was 30.5 µM; in experiment [4], 30.4 µM; in experiment [5], 5.27 µM; in experiment [6], 4.86 µM. Moreover, the TGI in experiment [7] is 35.7 µM; in experiment [8], 68.8 µM; in experiment [9], 33.4 µM; in experiment [10], 6.45 µM.
With `c1cc2c(ncc3cscc32)s1`, the TGI in experiment [1], in [2], in experiment [3], in experiment [4], in [5] and in experiment [6] was over 100 µM each time. Further, the TGI in experiment [7], in experiment [8], in experiment [9] and in experiment [10] was over 100 µM each time.
On to `C=C1CC[C@@H]2[C@](C)(COC(C)=O)[C@H](OC(C)=O)CC[C@@]2(C)[C@@H]1CC(Nc1ccc(S(=O)(=O)Nc2ncccn2)cc1)C1=CCOC1=O` (stereo partly drawn), for which the GI50 in experiment [1] was 1.9 µM; in [2], 1.93 µM; in experiment [3] it was 2.1 µM; in experiment [4] it was 2.36 µM; in experiment [5], 1.21 µM; in experiment [6] it was 1.21 µM. Moreover, the GI50 in experiment [7] was 3.18 µM; in [8] it was 3.54 µM; in experiment [9], 2.11 µM; in [10], 1.3 µM. Besides, the TGI is 3.85 µM in [1]; 4.16 µM in experiment [2]; 3.81 µM in [3]; 7.2 µM in [4]; 2.54 µM in experiment [5]; 3.33 µM in experiment [6]. The TGI in experiment [7] was 9.97 µM; in [8], 24.4 µM; in experiment [9] it was 5.07 µM; in experiment [10] it was 3.64 µM.
As to `Cn1cnc([N+](=O)[O-])c1[Se]c1nc(N)nc2c1ncn2C1OC(CO)C(O)C1O` (stereo not drawn), the TGI in experiment [1], in experiment [2], in experiment [3], in [4], in experiment [5] and in experiment [6] was over 100 µM in each case. Further, the TGI in experiment [7], in experiment [8], in experiment [9] and in experiment [10] was over 100 µM in each case.
As for `COc1ccccc1Cn1cc2c(c1-c1ccccc1)CCc1cnoc1-2`, the GI50 in experiment [1] was 1.93 µM; in experiment [2], 8.34 µM; in experiment [3], 5.48 µM; in experiment [4] it was 1.83 µM; in experiment [5] it was 1.23 µM; in experiment [6], 1.71 µM. For the same molecule, the GI50 in [7] is 4.31 µM; in experiment [8], 1.45 µM; in [9], 3.75 µM; in experiment [10], 1.32 µM. Further, the TGI was 11.2 µM in experiment [1]; over 100 µM in experiment [2]; over 100 µM in experiment [3]; 9.97 µM in [4]; 4.32 µM in experiment [5]; over 100 µM in [6]. Besides, the TGI in experiment [7] was over 100 µM; in experiment [8], 6.32 µM; in experiment [9] it was over 100 µM; in experiment [10], 8.36 µM.
Consider `C=C[C@H]1C[C@@H]2C[C@@H]3[C@H]4C/C=C\C(=O)NCCCC5NC(=O)C(=C(O)/C=C/[C@@H]4CC(=O)[C@H]3[C@@H]2[C@H]1C)C5=O` (stereo partly drawn), for which the GI50 was 0.161 µM in experiment [1]; 0.172 µM in [2]; 1.41 µM in experiment [3]; 1.08 µM in experiment [4]; 0.183 µM in [5]; 0.294 µM in [6]. Also, the GI50 in [7] was 0.62 µM; in experiment [8], 0.191 µM; in experiment [9], 1.36 µM; in [10] it was 1.68 µM. Further, the TGI in [1] was 0.309 µM; in experiment [2] it was 0.334 µM; in experiment [3] it was 2.78 µM; in experiment [4], 2.58 µM; in experiment [5], 0.334 µM; in experiment [6], 0.949 µM. For the same molecule, the TGI in experiment [7] came to 1.91 µM; in [8], 0.423 µM; in experiment [9], 2.76 µM; in [10] it was 3.42 µM.
In the case of `CCc1oc2ccccc2c1C(=O)c1cc(I)c(O)c(I)c1`, the GI50 was 3.2 µM in experiment [1]; 2.89 µM in experiment [2]; 4.84 µM in experiment [3]; 7.42 µM in [4]; 2.04 µM in experiment [5]; 2.26 µM in [6]. Also, the GI50 in experiment [7] is 3.61 µM; in experiment [8], 2.22 µM; in experiment [9] it was 3.75 µM; in experiment [10], 1.62 µM. Moreover, the TGI was 13.9 µM in experiment [1]; 15.2 µM in experiment [2]; 17.5 µM in [3]; 28 µM in experiment [4]; 5.12 µM in experiment [5]; 14.1 µM in [6]. Moreover, the TGI in experiment [7] stood at 17.6 µM; in [8] it was 7.41 µM; in experiment [9] it was 19.5 µM; in experiment [10], 8.74 µM.
Regarding `Cc1ccc(NC(=O)c2sc3nc(C)c(C(O)c4ccccc4)cc3c2N)cc1` (stereo not drawn), the GI50 was 0.417 µM in [1]; 2.47 µM in experiment [2]; 0.818 µM in experiment [3]; 1.32 µM in [4]; 0.351 µM in experiment [5]; 0.397 µM in experiment [6]. Also, the GI50 in [7] is 0.64 µM; in experiment [8] it was 0.327 µM; in [9] it was 0.429 µM; in [10], 0.293 µM. The TGI in experiment [1] was over 41.8 µM; in experiment [2] it was over 100 µM; in experiment [3], 5.73 µM; in [4], 67.3 µM; in experiment [5], 11.4 µM; in [6] it was over 73 µM. Further, the TGI was determined as 32.7 µM in [7], 10.3 µM in experiment [8], 20.7 µM in [9] and 0.909 µM in [10].
As to `Cc1ccc(NC(=O)NCCCOc2ccc(N3C(N)=NC(N)=NC3(C)C)cc2Cl)cc1S(=O)(=O)F`, the GI50 was 1.88 µM in [1]; 0.916 µM in [2]; 21.5 µM in experiment [3]; 8.6 µM in experiment [5]; over 100 µM in experiment [6]; 2.83 µM in [7]. Besides, the results for the GI50 in experiment [8], in [9] and in experiment [10] were 16.7 µM, 1.49 µM and 0.775 µM, respectively. Besides, the TGI in experiment [1] is 21.5 µM; in experiment [2], over 100 µM; in [3], over 100 µM; in experiment [5], over 100 µM; in experiment [6], over 100 µM; in experiment [7], over 100 µM. Besides, the TGI in [8], in experiment [9] and in [10] was over 100 µM throughout.
